Publication PMC3076215 (Biochemistry, 2011)

Target: T1, Carbon monoxide dehydrogenase (CODH) (Afipia carboxidovorans, UniProt P19920)
T1 sequence (P19920 1-288): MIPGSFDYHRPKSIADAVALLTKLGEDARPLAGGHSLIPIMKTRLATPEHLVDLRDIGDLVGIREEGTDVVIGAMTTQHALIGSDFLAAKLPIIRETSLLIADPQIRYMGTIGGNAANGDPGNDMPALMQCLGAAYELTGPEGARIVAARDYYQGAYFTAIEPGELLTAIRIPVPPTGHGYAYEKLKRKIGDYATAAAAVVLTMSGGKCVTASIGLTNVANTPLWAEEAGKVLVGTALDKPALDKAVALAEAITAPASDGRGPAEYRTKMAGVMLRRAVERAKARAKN
T1 sequence (P19919 1-809 partner): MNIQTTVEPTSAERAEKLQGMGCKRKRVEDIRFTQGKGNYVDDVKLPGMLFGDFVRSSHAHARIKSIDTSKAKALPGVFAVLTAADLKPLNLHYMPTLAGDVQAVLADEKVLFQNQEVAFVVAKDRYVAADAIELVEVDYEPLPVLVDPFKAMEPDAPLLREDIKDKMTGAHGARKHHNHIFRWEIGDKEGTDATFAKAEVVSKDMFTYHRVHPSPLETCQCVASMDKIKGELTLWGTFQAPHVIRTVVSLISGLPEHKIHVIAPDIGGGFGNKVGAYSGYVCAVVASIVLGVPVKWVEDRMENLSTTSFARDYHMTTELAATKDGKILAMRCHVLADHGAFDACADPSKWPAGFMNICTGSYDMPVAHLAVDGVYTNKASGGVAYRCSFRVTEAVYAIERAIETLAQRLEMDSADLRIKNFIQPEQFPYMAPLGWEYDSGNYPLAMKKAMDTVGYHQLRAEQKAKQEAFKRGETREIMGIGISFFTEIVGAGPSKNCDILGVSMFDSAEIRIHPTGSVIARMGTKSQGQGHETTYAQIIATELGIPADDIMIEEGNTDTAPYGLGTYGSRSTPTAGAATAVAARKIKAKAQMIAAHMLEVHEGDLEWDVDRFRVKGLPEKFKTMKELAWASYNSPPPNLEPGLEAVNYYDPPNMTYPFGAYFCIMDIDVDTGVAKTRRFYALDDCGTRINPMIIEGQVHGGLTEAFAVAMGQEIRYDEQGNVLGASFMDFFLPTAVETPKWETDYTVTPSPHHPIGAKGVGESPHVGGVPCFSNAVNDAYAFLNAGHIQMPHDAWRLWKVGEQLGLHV
T1 sequence (P19921 1-166 partner): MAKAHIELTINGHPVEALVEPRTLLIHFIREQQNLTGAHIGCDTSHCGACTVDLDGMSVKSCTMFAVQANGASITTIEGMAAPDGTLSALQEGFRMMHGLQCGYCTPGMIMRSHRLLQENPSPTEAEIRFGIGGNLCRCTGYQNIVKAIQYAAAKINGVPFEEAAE
Test: UV-vis difference titration at […] nm
Format: binding

O=C1C=CC(=O)C=C1 [1,4-benzoquinone]
Kd: 100 µM
